This experiment addresses T1, LRRK2 wild type (recombinant human, catalytic domain amino acids 970-2527, GST-tagged) (Homo sapiens, UniProt Q5S007).
T1 construct: The wild type used was recombinant human, catalytic domain (amino acids 970-2527) GST-tagged, expressed in insect cells; GST; purchased Invitrogen Corporation PV4873; host or cells: insect cells
In words: LRRK2 wild type protein kinase assay ([γ-33P] ATP, peptide substrate […]), IC50. Format: biochemical. Conditions: LRRK2 (variant not given); read-out: Potency score, LRRK2 IC50. A digest of the protocol: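 IC50 derived from duplicate 10-point titrations, with 33P incorporation into a 100 μM peptide counted after P81 filter capture. Roughly 5 nM unactivated kinase reacted with Mg/[γ-33P]ATP for 180 min at room temperature (~21 °C), pH 7.5 Tris buffer containing 10 mM MgCl2, EGTA and DTT; acid-quenched.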

T1 sequence (Q5S007 970-2527): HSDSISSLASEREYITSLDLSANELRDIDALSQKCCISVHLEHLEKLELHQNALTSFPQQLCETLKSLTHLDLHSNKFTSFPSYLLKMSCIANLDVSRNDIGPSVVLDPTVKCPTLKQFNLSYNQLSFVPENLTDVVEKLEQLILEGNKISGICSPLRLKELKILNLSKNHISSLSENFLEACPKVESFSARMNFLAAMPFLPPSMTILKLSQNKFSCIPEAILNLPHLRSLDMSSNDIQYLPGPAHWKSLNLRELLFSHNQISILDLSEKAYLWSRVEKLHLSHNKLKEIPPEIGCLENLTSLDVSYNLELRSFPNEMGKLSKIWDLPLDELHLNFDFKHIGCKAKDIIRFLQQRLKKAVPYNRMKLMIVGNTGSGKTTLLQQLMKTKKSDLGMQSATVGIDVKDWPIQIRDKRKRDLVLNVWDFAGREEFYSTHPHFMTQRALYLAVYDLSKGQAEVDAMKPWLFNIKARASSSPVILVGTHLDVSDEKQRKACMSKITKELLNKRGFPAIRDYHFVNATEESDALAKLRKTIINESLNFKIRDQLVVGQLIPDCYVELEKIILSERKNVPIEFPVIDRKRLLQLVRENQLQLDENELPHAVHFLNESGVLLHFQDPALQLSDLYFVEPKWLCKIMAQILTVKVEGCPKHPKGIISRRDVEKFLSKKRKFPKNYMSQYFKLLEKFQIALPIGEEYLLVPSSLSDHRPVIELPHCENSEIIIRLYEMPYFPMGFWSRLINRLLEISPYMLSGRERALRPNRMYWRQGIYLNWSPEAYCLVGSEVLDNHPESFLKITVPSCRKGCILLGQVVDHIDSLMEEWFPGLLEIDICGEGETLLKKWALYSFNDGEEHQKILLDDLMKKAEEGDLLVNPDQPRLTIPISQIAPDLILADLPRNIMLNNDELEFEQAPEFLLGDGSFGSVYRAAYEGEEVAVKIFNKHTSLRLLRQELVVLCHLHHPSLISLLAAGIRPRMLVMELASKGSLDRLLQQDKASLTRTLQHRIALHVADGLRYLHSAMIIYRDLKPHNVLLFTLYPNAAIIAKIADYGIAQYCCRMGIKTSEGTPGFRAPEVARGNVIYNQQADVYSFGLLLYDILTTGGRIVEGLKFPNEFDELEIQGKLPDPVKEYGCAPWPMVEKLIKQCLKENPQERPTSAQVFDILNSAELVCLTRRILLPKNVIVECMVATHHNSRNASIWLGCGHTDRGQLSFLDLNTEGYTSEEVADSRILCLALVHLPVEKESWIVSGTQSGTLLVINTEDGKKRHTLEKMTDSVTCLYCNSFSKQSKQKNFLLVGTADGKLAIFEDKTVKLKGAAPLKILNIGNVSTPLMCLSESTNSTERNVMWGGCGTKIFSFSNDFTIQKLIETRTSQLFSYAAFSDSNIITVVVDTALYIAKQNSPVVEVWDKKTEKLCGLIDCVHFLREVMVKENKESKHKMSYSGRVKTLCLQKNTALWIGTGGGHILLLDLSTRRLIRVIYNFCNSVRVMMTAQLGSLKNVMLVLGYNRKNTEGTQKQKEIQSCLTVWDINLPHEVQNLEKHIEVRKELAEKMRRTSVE

Regarding `Cc1n[nH]c2ccnc(NCc3ccc(F)cc3)c12` [Example 316, (4-Fluoro-benzyl)-(3-methyl-1H-pyrazolo[4,3-c]pyridin-4-yl)-amine], the half-maximal inhibitory concentration (IC50) (commonly the concentration that gives 50% inhibition) lay in the range of 1000 to 10000 nM.
Consider `Cc1n[nH]c2ccnc(Nc3cccc(O)c3)c12` [Example 77, 3-(3-Methyl-1H-pyrazolo[4,3-c]pyridin-4-ylamino)-phenol], for which the 50% inhibitory concentration (IC50) was in the range of 100 to 1000 nM.
To `Cc1n[nH]c2ccnc(-c3nccs3)c12` [Example 130, 3-Methyl-4-thiazol-2-yl-1H-pyrazolo[4,3-c]pyridine] belongs 100 to 1000 nM; to `Cc1n[nH]c2ccnc(NCCCn3ccnc3)c12` [Example 15, (3-Imidazol-1-yl-propyl)-(3-methyl-1H-pyrazolo[4,3-c]pyridin-4-yl)-amine], 100 to 1000 nM; to `Cc1n[nH]c2ccnc(O[C@@H]3C[C@@H]4CC[C@H]3C4)c12` (racemic) [Example 296], less than 100 nM.
To `CC(C)CN(C)C(=O)c1ccc(CCc2n[nH]c3ccnc(NC4CCCCC4)c23)cc1` [Example 249, 4-[2-(4-Cyclohexylamino-1H-pyrazolo[4,3-c]pyridin-3-yl)-ethyl]-N-isobutyl-N-methyl-benzamide] belongs less than 100 nM; to `Cc1n[nH]c2ccnc(Nc3ccc(Cl)cc3Cl)c12` [Example 306, (2,4-Dichloro-phenyl)-(3-methyl-1H-pyrazolo[4,3-c]pyridin-4-yl)-amine], 100 to 1000 nM; to `Cc1n[nH]c2ccnc(NCc3ccc(C#N)cc3)c12` [Example 327, 4-[(3-Methyl-1H-pyrazolo[4,3-c]pyridin-4-ylamino)-methyl]-benzonitrile], 1000 to 10000 nM.
For `Cc1n[nH]c2ccnc(Nc3ccc(C(=O)N4CCOCC4)cc3)c12` [Example 112, [4-(3-Methyl-1H-pyrazolo[4,3-c]pyridin-4-ylamino)-phenyl]-morpholin-4-yl-methanone] the value was 100 to 1000 nM.
`C[C@@H]1CCCN(C(=O)CCc2n[nH]c3ccnc(NC4CCCCC4)c23)C1` [Example 243, 3-(4-Cyclohexylamino-1H-pyrazolo[4,3-c]pyridin-3-yl)-1-((R)-3-methyl-piperidin-1-yl)-propan-1-one]: the half-maximal inhibitory concentration (IC50) is less than 100 nM.
Turning to `O=C(Nc1cccc(CCc2n[nH]c3ccnc(NC4CCCCC4)c23)c1)c1cccc(Cl)c1` [Example 226, 3-Chloro-N-{3-[2-(4-cyclohexylamino-1H-pyrazolo[4,3-c]pyridin-3-yl)-ethyl]-phenyl}-benzamide], the IC50 is less than 100 nM.
Consider `Cc1n[nH]c2ccnc(OCC(F)(F)F)c12` [Example 279, 3-Methyl-4-(2,2,2-trifluoro-ethoxy)-1H-pyrazolo [4,3-c]pyridine], for which the IC50 fell in the range of 100 to 1000 nM.
Regarding `CC1CCN(C(=O)c2ccc(CCc3n[nH]c4ccnc(NC5CCCCC5)c34)cc2)CC1` [Example 229, {4-[2-(4-Cyclohexylamino-1H-pyrazolo[4,3-c]pyridin-3-yl)-ethyl]-phenyl}-(4-methyl-piperidin-1-yl)-methanone], the 50% inhibitory concentration (IC50) is less than 100 nM.
For the compound `Cc1n[nH]c2ccnc(OC(C)C)c12` [Example 277, 4-isopropoxy-3-methyl-1H-pyrazolo[4,3-c]pyridine], the IC50 is less than 100 nM.
Take `c1ccc(-c2n[nH]c3ccnc(NC4CCCCC4)c23)cc1` [Example 136, Cyclohexyl-(3-phenyl-1H-pyrazolo[4,3-c]pyridin-4-yl)-amine]: the IC50 is 100 to 1000 nM.
To `c1cc2[nH]nc(CCC3CCNCC3)c2c(NC2CCCCC2)n1` [Example 217, Cyclohexyl-[3-(2-piperidin-4-yl-ethyl)-1H-pyrazolo[4,3-c]pyridin-4-yl]-amine] belongs 1000 to 10000 nM; to `COc1ccccc1CCNc1nccc2[nH]nc(C)c12` [Example 339, [2-(2-Methoxy-phenyl)-ethyl]-(3-methyl-1H-pyrazolo[4,3-c]pyridin-4-yl)-amine], 1000 to 10000 nM; to `CCOc1ccccc1Nc1nccc2[nH]nc(C)c12` [Example 68, (2-Ethoxy-phenyl)-(3-methyl-1H-pyrazolo[4,3-c]pyridin-4-yl)-amine], 100 to 1000 nM.
For `COc1nccc2[nH]nc(/C=C/C(=O)N3CCC[C@@H](C)C3)c12` [Example 259, (E)-3-(4-Methoxy-1H-pyrazolo[4,3-c]pyridin-3-yl)-1-((R)-3-methyl-piperidin-1-yl)-propenone], the IC50 was less than 100 nM.
As for `Cc1n[nH]c2ccnc(NCc3ccc(Cl)cc3)c12` [Example 1, (4-Chloro-benzyl)-(3-methyl-1H-pyrazolo[4,3-c]pyridin-4-yl)-amine], the half-maximal inhibitory concentration (IC50) was in the range of 1000 to 10000 nM.
Take `O=C(CCc1n[nH]c2ccnc(NC3CCCCC3)c12)NC1CC1` [Example 171, 3-(4-Cyclohexylamino-1H-pyrazolo[4,3-c]pyridin-3-yl)-N-cyclopropyl-propionamide]: the IC50 fell in the range of 1000 to 10000 nM.
Regarding `Cc1n[nH]c2ccnc(NCCC3CCCN3C)c12` (stereo not drawn) [Example 25, (3-Methyl-1H-pyrazolo[4,3-c]pyridin-4-yl)-[2-(1-methyl-pyrrolidin-2-yl)-ethyl]-amine], the IC50 is 1000 to 10000 nM.
As for `COc1ccc(C(=O)N2CCC(Nc3nccc4[nH]nc(C)c34)CC2)cc1` [Example 105, (4-Methoxy-phenyl)-[4-(3-methyl-1H-pyrazolo[4,3-c]pyridin-4-ylamino)-piperidin-1-yl]-methanone], the IC50 fell in the range of 1000 to 10000 nM.
As to `Cc1n[nH]c2ccnc(Nc3ccc4ncoc4c3)c12` [Example 349, Benzoxazol-6-yl-(3-methyl-1H-pyrazolo[4,3-c]pyridin-4-yl)-amine], the IC50 lay in the range of 100 to 1000 nM.
On to `Cn1cnc(C(=O)Nc2ccc(CCc3n[nH]c4ccnc(NC5CCCCC5)c34)cc2)c1` [Example 269, 1-Methyl-1H-imidazole-4-carboxylic acid {4-[2-(4-cyclohexylamino-1H-pyrazolo[4,3-c]pyridin-3-yl)-ethyl]-phenyl}-amide], for which the IC50 is less than 100 nM.
In the case of `CCN(CC)C(=O)CCc1n[nH]c2ccnc(NC3CCCCC3)c12` [Example 181, 3-(4-Cyclohexylamino-1H-pyrazolo[4,3-c]pyridin-3-yl)-N,N-diethyl-propionamide], the concentration for half-maximal inhibition (IC50) fell in the range of 100 to 1000 nM.
As to `Cc1n[nH]c2ccnc(Nc3ccc4cnn(C)c4c3)c12` [Example 90, (1-Methyl-1H-indazol-6-yl)-(3-methyl-1H-pyrazolo[4,3-c]pyridin-4-yl)-amine], the half-maximal inhibitory concentration (IC50) was in the range of 100 to 1000 nM.
Take `Cc1n[nH]c2ccnc(N3CCN(Cc4cc(F)ccc4F)CC3)c12` [Example 8, 4-[4-(2,5-Difluoro-benzyl)-piperazin-1-yl]-3-methyl-1H-pyrazolo[4,3-c]pyridine]: the IC50 fell in the range of 1000 to 10000 nM.
On to `COc1ccccc1CNc1nccc2[nH]nc(C)c12` [Example 336], for which the IC50 fell in the range of 1000 to 10000 nM.
As for `Cc1n[nH]c2ccnc(O[C@H]3CC[C@H](C)CC3)c12` [Example 294, Trans-3-Methyl-4-(4-methyl-cyclohexyloxy)-1H-pyrazolo[4,3-c]pyridine], the 50% inhibitory concentration (IC50) was less than 100 nM.
In the case of `Cc1n[nH]c2ccnc(NCc3ccc(C(F)(F)F)cc3)c12` [Example 326, (3-Methyl-1H-pyrazolo[4,3-c]pyridin-4-yl)-4-(4-trifluoromethyl-benzyl)-amine], the IC50 lay within 1000 to 10000 nM.
For `Cc1n[nH]c2ccnc(NCCC(C)C)c12` [Example 343, (3-Methyl-butyl)-(3-methyl-1H-pyrazolo[4,3-c]pyridin-4-yl)-amine], the half-maximal inhibitory concentration (IC50) is 1000 to 10000 nM.
As to `CC(=O)NCCNc1nccc2[nH]nc(C)c12` [Example 302, N-[2-(3-Methyl-1H-pyrazolo[4,3-c]pyridin-4-ylamino)-ethyl]-acetamide], the IC50 lay within 1000 to 10000 nM.
Take `O=C(CCc1n[nH]c2ccnc(NC3CCCCC3)c12)NCc1cccc(F)c1` [Example 186, 3-(4-Cyclohexylamino-1H-pyrazolo[4,3-c]pyridin-3-yl)-N-(3-fluoro-benzyl)-propionamide]: the IC50 was 1000 to 10000 nM.
For `Cc1cc(C)n(CCNc2nccc3[nH]nc(C)c23)n1` [Example 323, [2-(3,5-Dimethyl-pyrazol-1-yl)-ethyl]-(3-methyl-1H-pyrazolo[4,3-c]pyridin-4-yl)-amine], the 50% inhibitory concentration (IC50) lay in the range of 1000 to 10000 nM.
`Cc1n[nH]c2ccnc(Nc3ccc(N4CCOCC4)nc3)c12` [Example 63, (3-Methyl-1H-pyrazolo[4,3-c]pyridin-4-yl)-(6-morpholin-4-yl-pyridin-3-yl)-amine]: the concentration for half-maximal inhibition (IC50) is 100 to 1000 nM.
With `Cc1n[nH]c2ccnc(-c3ccco3)c12` [Example 48, 4-Furan-2-yl-3-methyl-1H-pyrazolo[4,3-c]pyridine], the IC50 lay in the range of 100 to 1000 nM.
Take `Cc1n[nH]c2ccnc(Nc3cc(F)cc(F)c3)c12` [Example 69, (3,5-Difluoro-phenyl)-(3-methyl-1H-pyrazolo[4,3-c]pyridin-4-yl)-amine]: the 50% inhibitory concentration (IC50) was in the range of 100 to 1000 nM.
To `CC(=O)N1CCC(Nc2nccc3[nH]nc(C)c23)CC1` [Example 101, 1-[4-(3-Methyl-1H-pyrazolo[4,3-c]pyridin-4-ylamino)-piperidin-1-yl]-ethanone] belongs 100 to 1000 nM.
For `COc1ccc(-c2n[nH]c3ccnc(NC4CCCCC4)c23)cn1` [Example 142, Cyclohexyl-[3-(6-methoxy-pyridin-3-yl)-1H-pyrazolo[4,3-c]pyridin-4-yl]-amine] the value was 1000 to 10000 nM; for `CN1CCOc2cc(-c3n[nH]c4ccnc(NC5CCCCC5)c34)ccc21` [Example 161, Cyclohexyl-[3-(4-methyl-3,4-dihydro-2H-1,4-benzoxazin-7-yl)-1H-pyrazolo[4,3-c]pyridin-4-yl]-amine], 100 to 1000 nM; for `O=C(CCc1n[nH]c2ccnc(NC3CCCCC3)c12)N1CCC(F)(F)CC1` [Example 168, 3-(4-Cyclohexylamino-1H-pyrazolo[4,3-c]pyridin-3-yl)-1-(4,4-difluoro-piperidin-1-yl)-propan-1-one], 100 to 1000 nM.

For the origin of these results see patent publication US20170320870A1 (Medical Research Council Technology, priority 2009, published 2017).
